For the assay, the target named is Autotaxin (Homo sapiens, UniProt Q13822). Briefly: Bioactivity Assay. Here is the method:
Preparation and Treatment. Stock Solution Preparation. A 10 mM DMSO stock solution was formulated for each compound. A 30 mM DMSO stock solution was formulated for positive control HA130. Preservation: The DMSO stock solutions were stored at room temperature in a desiccator for a short period of time or at −20° C. for a long period of time. Preparation All compounds were serially 3-fold diluted in DMSO from 10 μM to the 10th concentration.A 1000× positive control (10 mM, HA130) and a 1000× negative control (100% DMSO) were prepared. The plates were shaken for 5 min. Preparation of 1× Reaction Buffer:>5× reaction buffer and cold water were mixed well in a volume ratio of 1:4. Preparation of 20 U/mL Choline Oxidase Stock Solution:1 tube of choline oxide in a kit was dissolved in 1× reaction buffer. The aliquots were frozen at −20° C. Preparation of 200 U/mL Horseradish Peroxidase (HRP) Stock Solution:1 tube of HRP in a kit was dissolved in 1 mL of 1× reaction buffer. The aliquots were frozen at −20° C. Preparation of 20 mM Amplex Red Reagent (for Detection) Stock Solution Amplex Red reagent and DMSO were equilibrated at room temperature.

`CCn1nc2cnc(N3CCN(CC(=O)N4CC(O)C4)CC3)cc2c1N(C)c1nc(-c2ccc(F)cc2)c(C#N)s1` [US11591342, Compound S-0044] registered an IC50 of 5530 nM.
Then `CCn1nc2ncc(N3CCN(CC(=O)N4CC(O)C4)CC3)cc2c1N(C)c1nc(-c2ccc(F)cc2)c(C#N)s1` [US11591342, Compound S-0043], with 648 nM.
As to `CCc1nn2ccc(N3CCN(CC(=O)N4CC(O)C4)CC3)nc2c1N(C)c1nc(-c2ccc(F)cc2)c(C#N)s1` [US11591342, Compound S-0041], the 50% inhibitory concentration (IC50) came out at 39 nM. This IC50 lies about 17-fold lower than the previous one.

By IC50 is commonly meant the concentration at which inhibition is half-maximal.
